From the supplement of paper PMC12076712
± gives the standard deviation of the averaged measurements.

Tests used:
Test in all cases: pIC50, kinobeads binding competition
Conditions in all cases: cell material: Jurkat lysate
TESK2 = TESK2 (UniProt Q96S53)
PRKCH = PRKCH (UniProt P24723)
NEK9 = target: T1, NEK9 (UniProt Q8TD19)
T1 sequence (whole entry): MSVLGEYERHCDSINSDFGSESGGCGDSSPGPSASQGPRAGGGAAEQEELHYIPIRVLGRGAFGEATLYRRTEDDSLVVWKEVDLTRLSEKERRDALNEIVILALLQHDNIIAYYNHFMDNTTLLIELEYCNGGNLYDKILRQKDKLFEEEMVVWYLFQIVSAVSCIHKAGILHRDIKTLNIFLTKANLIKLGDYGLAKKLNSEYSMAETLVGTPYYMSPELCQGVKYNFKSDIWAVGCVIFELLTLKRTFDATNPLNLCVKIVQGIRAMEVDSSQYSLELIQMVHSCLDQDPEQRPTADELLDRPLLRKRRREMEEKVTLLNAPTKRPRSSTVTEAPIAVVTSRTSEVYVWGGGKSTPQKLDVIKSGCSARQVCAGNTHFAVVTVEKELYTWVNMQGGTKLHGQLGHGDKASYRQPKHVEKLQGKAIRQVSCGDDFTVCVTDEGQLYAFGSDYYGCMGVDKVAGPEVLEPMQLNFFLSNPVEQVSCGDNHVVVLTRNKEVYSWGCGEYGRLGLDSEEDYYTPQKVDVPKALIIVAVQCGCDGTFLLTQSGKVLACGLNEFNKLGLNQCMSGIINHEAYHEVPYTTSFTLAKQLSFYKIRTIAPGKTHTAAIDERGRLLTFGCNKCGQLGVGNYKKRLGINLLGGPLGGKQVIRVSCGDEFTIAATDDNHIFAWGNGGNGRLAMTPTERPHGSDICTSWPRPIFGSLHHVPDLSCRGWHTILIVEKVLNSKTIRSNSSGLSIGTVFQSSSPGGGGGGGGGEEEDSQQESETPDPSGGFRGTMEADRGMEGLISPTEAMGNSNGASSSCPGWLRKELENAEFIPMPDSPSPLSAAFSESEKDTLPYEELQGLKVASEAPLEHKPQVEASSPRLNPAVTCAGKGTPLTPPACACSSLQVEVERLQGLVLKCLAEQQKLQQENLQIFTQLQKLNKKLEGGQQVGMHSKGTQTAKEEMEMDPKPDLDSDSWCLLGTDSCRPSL

PKMYT1 = target: T2, PKMYT1 (UniProt Q99640)
T2 sequence (whole entry): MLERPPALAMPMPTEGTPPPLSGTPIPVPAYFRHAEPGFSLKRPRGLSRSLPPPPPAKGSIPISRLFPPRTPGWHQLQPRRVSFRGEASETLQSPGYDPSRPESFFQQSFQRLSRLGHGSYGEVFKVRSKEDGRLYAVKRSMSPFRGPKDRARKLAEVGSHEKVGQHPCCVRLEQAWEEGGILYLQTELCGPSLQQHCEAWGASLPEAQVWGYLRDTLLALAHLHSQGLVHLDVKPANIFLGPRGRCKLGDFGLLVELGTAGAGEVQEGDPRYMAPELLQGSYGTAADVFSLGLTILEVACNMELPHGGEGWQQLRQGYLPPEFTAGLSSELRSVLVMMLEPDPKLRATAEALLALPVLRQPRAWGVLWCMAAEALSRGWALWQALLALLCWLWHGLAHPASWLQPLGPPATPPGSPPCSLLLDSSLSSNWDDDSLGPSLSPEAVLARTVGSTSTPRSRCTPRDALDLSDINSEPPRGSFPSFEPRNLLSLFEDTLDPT

TAOK3 = TAOK3 (UniProt Q9H2K8)
IRAK1 = IRAK1 (UniProt P51617)
AKT1 = AKT1 (UniProt P31749)
UniProt O15111 = target: T3, UniProt O15111
T3 sequence (whole entry): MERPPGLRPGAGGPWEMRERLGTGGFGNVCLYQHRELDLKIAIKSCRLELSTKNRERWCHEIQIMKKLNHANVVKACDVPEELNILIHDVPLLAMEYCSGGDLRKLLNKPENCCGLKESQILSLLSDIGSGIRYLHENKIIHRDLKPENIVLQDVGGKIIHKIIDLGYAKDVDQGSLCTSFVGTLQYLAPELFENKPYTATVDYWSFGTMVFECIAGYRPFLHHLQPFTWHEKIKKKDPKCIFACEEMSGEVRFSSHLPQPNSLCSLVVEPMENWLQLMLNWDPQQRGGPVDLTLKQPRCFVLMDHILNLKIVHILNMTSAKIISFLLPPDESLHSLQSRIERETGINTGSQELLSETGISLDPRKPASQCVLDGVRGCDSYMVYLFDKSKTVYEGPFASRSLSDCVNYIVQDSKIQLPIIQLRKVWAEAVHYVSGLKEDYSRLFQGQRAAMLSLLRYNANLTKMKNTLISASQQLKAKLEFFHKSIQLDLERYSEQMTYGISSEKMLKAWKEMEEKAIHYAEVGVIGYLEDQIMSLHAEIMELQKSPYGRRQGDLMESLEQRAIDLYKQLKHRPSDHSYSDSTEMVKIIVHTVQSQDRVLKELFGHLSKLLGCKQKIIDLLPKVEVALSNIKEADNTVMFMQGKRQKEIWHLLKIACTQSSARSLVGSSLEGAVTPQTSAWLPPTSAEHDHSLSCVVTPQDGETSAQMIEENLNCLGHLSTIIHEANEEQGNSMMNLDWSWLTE

SGK3 = target: T4, SGK3 (UniProt Q96BR1)
T4 sequence (whole entry): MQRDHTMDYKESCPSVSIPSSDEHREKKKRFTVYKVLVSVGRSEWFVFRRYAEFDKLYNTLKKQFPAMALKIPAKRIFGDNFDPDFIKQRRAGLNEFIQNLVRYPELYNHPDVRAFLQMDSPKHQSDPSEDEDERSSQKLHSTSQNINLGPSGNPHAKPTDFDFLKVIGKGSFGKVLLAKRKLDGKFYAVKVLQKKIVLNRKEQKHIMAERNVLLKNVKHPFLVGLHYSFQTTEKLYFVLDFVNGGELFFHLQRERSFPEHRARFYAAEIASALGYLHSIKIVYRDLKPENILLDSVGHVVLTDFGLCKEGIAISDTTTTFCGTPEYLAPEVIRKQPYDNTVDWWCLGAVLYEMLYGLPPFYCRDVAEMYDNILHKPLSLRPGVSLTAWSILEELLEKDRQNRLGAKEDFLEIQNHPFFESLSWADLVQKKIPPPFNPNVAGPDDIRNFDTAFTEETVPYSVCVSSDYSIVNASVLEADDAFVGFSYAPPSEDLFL

RPS6KA4 = RPS6KA4 (UniProt O75676)
Sequence of RPS6KA4 (O75676 whole entry, looked up): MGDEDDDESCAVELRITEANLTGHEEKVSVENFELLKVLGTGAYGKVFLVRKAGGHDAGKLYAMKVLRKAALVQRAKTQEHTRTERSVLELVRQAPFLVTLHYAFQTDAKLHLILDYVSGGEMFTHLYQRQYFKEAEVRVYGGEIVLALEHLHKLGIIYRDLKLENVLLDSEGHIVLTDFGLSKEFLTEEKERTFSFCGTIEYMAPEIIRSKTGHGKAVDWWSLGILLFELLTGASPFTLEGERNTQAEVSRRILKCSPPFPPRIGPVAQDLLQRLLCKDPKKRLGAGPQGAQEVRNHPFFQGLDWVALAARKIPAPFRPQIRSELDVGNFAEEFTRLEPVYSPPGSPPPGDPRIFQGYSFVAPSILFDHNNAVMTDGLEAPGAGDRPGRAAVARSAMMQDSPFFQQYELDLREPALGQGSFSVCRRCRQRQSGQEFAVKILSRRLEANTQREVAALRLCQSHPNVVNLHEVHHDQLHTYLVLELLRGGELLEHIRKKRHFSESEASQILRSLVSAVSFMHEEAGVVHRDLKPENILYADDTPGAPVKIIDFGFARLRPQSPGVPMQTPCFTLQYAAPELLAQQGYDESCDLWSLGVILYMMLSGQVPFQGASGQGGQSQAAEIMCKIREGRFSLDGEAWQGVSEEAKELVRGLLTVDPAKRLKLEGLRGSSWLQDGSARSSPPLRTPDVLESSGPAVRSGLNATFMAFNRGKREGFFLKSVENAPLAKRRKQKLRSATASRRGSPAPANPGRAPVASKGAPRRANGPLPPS

Sequence of PRKCH (P24723 whole entry, looked up): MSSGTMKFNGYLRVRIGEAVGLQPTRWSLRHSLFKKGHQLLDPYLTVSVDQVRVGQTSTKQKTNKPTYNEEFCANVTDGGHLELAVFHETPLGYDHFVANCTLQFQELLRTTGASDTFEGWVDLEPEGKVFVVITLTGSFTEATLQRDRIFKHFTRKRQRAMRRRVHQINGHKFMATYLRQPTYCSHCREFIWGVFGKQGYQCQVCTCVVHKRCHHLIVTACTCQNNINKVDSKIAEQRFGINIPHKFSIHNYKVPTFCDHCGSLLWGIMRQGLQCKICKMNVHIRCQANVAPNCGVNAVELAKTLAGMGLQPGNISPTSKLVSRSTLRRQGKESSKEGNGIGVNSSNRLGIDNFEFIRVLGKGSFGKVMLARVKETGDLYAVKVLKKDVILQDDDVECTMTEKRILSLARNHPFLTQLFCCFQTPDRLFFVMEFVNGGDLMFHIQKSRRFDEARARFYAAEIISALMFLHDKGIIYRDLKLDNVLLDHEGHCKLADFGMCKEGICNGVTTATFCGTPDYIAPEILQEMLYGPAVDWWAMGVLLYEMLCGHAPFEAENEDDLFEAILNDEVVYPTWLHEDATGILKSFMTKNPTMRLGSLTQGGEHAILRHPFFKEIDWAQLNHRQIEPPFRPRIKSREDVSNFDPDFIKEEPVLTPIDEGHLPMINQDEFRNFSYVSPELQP
Sequence of TESK2 (Q96S53 whole entry, looked up): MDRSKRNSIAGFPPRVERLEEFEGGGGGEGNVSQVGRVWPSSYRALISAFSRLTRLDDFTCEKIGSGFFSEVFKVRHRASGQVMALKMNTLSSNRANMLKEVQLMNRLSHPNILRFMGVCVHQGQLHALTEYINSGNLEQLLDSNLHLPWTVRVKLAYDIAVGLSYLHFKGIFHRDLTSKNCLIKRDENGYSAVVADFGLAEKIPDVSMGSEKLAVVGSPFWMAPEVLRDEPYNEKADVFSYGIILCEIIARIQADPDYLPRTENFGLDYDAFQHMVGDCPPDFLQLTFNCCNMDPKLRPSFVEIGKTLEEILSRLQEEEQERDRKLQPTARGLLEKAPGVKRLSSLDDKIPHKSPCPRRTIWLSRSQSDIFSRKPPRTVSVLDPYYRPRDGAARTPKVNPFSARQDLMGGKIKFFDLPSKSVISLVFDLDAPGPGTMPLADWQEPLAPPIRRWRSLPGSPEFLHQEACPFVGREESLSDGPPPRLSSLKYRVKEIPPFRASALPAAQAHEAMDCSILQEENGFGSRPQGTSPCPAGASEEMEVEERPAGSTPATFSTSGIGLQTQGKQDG
Sequence of TAOK3 (Q9H2K8 whole entry, looked up): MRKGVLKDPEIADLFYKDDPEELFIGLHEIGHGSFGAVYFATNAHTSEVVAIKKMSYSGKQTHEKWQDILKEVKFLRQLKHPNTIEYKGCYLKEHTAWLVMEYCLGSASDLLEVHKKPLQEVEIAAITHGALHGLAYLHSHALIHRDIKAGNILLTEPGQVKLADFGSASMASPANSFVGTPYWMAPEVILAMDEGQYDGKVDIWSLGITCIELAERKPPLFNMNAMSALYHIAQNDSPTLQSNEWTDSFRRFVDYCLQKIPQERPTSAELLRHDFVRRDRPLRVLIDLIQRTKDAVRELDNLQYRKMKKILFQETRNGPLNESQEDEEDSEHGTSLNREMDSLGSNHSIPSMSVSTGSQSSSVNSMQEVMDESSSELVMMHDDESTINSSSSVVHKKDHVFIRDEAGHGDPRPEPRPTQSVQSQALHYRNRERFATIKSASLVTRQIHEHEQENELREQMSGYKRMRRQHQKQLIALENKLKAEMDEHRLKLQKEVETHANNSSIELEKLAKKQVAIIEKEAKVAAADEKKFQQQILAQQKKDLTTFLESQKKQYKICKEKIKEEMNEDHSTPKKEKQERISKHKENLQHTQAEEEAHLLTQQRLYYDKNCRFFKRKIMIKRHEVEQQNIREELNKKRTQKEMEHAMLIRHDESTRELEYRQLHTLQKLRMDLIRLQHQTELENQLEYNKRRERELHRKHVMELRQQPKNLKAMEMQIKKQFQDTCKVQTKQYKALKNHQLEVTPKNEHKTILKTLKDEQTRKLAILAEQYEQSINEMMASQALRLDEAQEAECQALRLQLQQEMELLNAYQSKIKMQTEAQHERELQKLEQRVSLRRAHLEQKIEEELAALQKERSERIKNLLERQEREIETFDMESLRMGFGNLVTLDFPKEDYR
Sequence of AKT1 (P31749 whole entry): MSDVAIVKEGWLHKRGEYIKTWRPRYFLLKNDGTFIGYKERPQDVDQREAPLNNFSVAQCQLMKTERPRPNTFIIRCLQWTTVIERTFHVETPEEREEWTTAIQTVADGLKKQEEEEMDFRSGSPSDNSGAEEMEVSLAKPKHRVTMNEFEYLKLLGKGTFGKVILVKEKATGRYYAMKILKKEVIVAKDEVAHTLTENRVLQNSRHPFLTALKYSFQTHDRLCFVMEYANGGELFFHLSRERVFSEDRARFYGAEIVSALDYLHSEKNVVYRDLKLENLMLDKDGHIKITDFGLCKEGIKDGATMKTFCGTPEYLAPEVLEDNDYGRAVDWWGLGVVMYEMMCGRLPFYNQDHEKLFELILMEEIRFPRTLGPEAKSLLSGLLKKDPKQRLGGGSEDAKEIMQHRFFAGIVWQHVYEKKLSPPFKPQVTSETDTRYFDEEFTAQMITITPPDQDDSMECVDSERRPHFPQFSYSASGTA
Sequence of IRAK1 (P51617 whole entry, looked up): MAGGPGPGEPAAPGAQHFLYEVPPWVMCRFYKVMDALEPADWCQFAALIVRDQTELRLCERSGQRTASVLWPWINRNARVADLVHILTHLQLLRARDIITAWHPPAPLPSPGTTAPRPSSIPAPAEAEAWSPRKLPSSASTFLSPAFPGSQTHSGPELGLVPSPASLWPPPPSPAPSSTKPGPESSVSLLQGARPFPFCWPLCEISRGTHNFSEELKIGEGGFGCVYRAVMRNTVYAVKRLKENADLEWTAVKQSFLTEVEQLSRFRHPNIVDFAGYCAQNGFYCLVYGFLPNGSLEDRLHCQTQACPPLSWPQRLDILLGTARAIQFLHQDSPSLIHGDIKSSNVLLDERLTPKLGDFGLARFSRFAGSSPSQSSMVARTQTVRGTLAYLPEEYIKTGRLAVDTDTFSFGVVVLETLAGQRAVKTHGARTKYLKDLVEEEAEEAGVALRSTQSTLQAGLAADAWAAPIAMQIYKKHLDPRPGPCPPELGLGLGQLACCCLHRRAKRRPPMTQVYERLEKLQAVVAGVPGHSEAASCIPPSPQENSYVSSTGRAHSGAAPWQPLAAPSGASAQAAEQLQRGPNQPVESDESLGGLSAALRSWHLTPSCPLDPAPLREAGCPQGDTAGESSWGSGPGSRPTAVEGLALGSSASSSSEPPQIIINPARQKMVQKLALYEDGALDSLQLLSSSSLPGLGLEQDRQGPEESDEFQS

- pIC50 (TESK2): < 4.52
- pIC50 (PRKCH): < 4.52
- pIC50 (PKMYT1): < 4.52
- pIC50 (TAOK3): 5.79 ± 0.13
- pIC50 (IRAK1): < 4.52
- pIC50 (AKT1): < 4.52
- pIC50 (UniProt O15111): < 4.52
- pIC50 (SGK3): < 4.52
- pIC50 (RPS6KA4): < 4.52
Compound: CCc1cnn2c(NCc3ccc[n+]([O-])c3)cc(N3CCCC[C@H]3CCO)nc12 [dinaciclib]
- pIC50 (NEK9): < 4.52
